For data set [1], the system named is AML and GBM cells. Kind of data set: Viability of AML and GBM cells, control compound. Particulars: 72 h, MTT/CCK8, in words.
Data set [2] deals with T1, papain (Carica papaya, UniProt P00784).
T1 sequence (P00784 134-345): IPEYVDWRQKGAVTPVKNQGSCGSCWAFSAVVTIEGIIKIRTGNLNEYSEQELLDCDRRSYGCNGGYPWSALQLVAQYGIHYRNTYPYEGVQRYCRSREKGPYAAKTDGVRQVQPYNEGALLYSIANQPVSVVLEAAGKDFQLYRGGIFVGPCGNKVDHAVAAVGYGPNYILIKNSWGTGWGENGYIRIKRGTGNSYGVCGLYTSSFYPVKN
As to the kind of experiment: Papain inhibition. Particulars: TD19 at 10 μM; E64 and IAA positive controls. In kind it is biochemical.

The target of data set [3] is T2, ALKBH5 (Homo sapiens, UniProt Q6P6C2). As to the kind of experiment: PAGE-based demethylation assay, ALKBH5. Particulars: compound at 50 μM. Type of data set: biochemical.
T2 sequence (Q6P6C2 66-292 limits assumed): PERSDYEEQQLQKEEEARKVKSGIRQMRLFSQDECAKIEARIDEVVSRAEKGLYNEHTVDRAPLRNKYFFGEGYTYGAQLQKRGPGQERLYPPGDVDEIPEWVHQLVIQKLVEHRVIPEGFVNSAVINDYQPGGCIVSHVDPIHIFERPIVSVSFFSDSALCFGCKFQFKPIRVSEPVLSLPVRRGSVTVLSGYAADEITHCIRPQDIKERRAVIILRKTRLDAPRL
The target of data set [4] is FTO (Homo sapiens, UniProt Q9C0B1). As to the kind of experiment: PAGE-based demethylation assay, FTO. Type of data set: biochemical. Particulars: compound at 50 μM.
FTO, sequence (Q9C0B1 32-505 limits assumed): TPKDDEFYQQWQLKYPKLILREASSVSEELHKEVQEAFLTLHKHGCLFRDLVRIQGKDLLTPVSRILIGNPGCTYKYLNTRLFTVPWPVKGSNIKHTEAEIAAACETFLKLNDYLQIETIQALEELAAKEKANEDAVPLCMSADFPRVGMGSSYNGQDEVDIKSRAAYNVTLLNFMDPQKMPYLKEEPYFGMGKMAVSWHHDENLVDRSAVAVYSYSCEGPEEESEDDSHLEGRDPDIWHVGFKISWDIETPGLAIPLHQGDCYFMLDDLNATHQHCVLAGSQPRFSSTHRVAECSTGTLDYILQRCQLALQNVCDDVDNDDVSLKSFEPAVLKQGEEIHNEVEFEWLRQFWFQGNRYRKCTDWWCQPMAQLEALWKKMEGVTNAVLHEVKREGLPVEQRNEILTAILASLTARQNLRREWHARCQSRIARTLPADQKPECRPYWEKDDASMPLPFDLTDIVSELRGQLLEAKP
Data set [5] has as its target T2, ALKBH5. As to the kind of experiment: FRET-based m6A detection assay, ALKBH5. Particulars: preincubation for various durations, in words.
For data set [6], the target named is ALKBH5 C100SC267S (human, UniProt Q6P6C2 66-292, C100S;C267S). Kind of data set: pull-down.
ALKBH5 C100SC267S, sequence (Q6P6C2 66-292 C100S/C267S): as the sequence (Q6P6C2 66-292 limits assumed) above, with C35S, C202S counted along it

Take `Cc1noc(C)c1-c1cc(Cl)c(Nc2ccccc2C(=O)NO)c(Cl)c1` [FB23-2]: the “Antiproliferative activity compared with TD19” value in data set [1] was “displayed better activities than TD19”.
For the molecule `CC(C)C[C@H](NC(=O)[C@H]1O[C@@H]1C(=O)O)C(=O)NCCCCN=C(N)N` (relative stereo) [E64, L-trans-epoxysuccinyl-leucylamido(4-guanidino)butane], the Inhibition of papain entry in data set [2] is reported as “significant inhibition”.
In the case of `NC(=O)CI` [IAA, iodoacetamide], in data set [3], the “Inhibition of ALKBH5 demethylation of dm6A-modified substrate” value was “did not inhibit”. Further, the “Inhibition of FTO demethylation of dm6A-modified substrate” value in data set [4] is reported as “did not inhibit”. The Inhibition of papain result in data set [2] is reported as “significant inhibition”.
Consider `CCN1C(=O)C=CC1=O` [NEM, N-ethylmaleimide], for which the “Inhibition of ALKBH5 demethylation of dm6A-modified substrate” value in data set [3] is given as “inhibited the demethylation”.
For `O=C(O)c1cc(O)c2c(c1)C(=O)c1cccc(O)c1C2=O` [rhein], the “Time dependence and reversibility of ALKBH5 inhibition” value in data set [5] is “time-independent and reversible”.

B1: 5'-biotin-TEG dm6A DNA (ssDNA)
DNA: TTTTTTGGACT
modifications: N6-methyl-deoxyadenosine at position 9
For B1, the binding result in data set [6] is reported as “binds”.

Values taken from paper PMC10989504 (RSC Chemical Biology, 2024).
